In patent US20220047752A1, “BIOLOGICAL INDICATOR FOR DISINFECTION PROCESS CHALLENGE DEVICE” (3M INNOVATIVE PROPERTIES COMPANY, priority 2016, published 2022):

What was measured:
[1] = tested on: Aspergillus brasiliensis (ATCC 16404) spores; assay: Flow-through disinfection, indicator device connected to the AER flow pump system; spore viability in malt extract broth; assay type: cell-based; details: 0.35% OPA at 25 C pumped through device at approx. 25 ml/min, incubated up to 7 days, duplicate devices
Experimental: (§1) Aspergillus brasiliensis (ATCC 16404) was inoculated onto the surface of a potato dextrose agar culture and incubated 14 days at 25-30° C. After the incubation period, the surface of the plate was flooded with an aqueous solution of glycerol (10% v/v) and Tween 20 detergent (0.05% v/v). The viable fungal spore population was determined by standard plate counting method using PETRIFILM™ Rapid Yeast and Mold Count Plates (RYM) obtained from 3M Company (St. Paul, Minn.). The plates were incubated at 28-30° C. for 2-3 days. The resulting spore suspension was stored at −80 degrees C. until use.
(§2) The spore suspension was diluted in water to a concentration of approximately 10^8 spores/mL. Ten microliters (approximately 1×10^6 spores) of the diluted spore suspension was pipetted onto a circular disc (approximately 0.25 inch (6.4 mm) diameter) nonwoven carrier material (Sontara® grade 8005 nonwoven material obtained from Dupont (Candler, N.C.)). The spore-coated discs were allowed to dry for 24 hours at room temperature before assembling the indicator device.
(§3) Indicator devices were made by inserting aerosol-filter pipet tips (Part #16466-008; sterile aerosol 1000 uL pipet tips; VWR; Radnor, Pa.) into a piece of hollow tubing (Part #14-169-7C; PVC tubing, 0.25-inch (6.4 mm) inner diameter; Fisher Scientific; Waltham, Mass.), as shown in FIGS. 13-14. […]

[2] = tested on: Aspergillus brasiliensis (ATCC 16404) spores; assay: Liquid disinfection process in AER basin, indicator device not connected to the pump; spore viability in malt extract broth; assay type: cell-based; details: 0.35% OPA (minimum effective concentration), 5 minute contact at 25 C, two rinses with purified water; approx. 1x10^6 spores on carrier; broth incubated 7 days at 30 C
Experimental: as §1, §2, §3

Measured: growth of spores in malt extract broth after contact with the liquid disinfectant

O=Cc1ccccc1C=O [OPA, ortho-phthalaldehyde]
No growth: [1]; 30 seconds contact | [1]; 5 minutes contact | [2]
